# Laboratory results as given in article PMC10094593, “Chemical Space Virtual Screening against Hard-to-Drug RNA Methyltransferases DNMT2 and NSUN6” (International Journal of Molecular Sciences, 2023).
# Like-named read-outs stand apart in the source and are kept apart here.
# Experiments:
# [1] = target: T1, NSUN6 (Homo sapiens, UniProt Q8TEA1); experiment: Microscale thermophoresis (MST) binding assay, NSUN6; conditions: for Kd: MST dose-response curve; for MST pre-screening: ligand concentration 33, 100, 300 µM
# T1 construct: host or cells: E. coli Rosetta2
# T1 sequence (Q8TEA1 1-469): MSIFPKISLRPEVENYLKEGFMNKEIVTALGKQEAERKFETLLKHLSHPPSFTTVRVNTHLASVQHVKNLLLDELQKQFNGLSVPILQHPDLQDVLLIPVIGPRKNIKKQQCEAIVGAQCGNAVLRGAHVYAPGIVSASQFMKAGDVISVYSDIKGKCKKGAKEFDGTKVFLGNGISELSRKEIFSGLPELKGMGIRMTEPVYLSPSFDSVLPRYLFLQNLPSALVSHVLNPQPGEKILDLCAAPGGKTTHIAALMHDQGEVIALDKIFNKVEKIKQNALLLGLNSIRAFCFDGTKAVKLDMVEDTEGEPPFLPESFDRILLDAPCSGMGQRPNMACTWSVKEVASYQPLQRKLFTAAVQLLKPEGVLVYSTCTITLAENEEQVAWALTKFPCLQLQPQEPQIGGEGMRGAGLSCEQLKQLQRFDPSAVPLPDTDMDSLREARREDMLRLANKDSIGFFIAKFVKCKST
# Experimental: (§1) Since the constructs of DNMT2 and NSUN6 contain hexa-histidine tags, proteins were labeled using a Monolith His-Tag Labeling Kit RED-Tris-NTA 2nd generation according to the manufacturer’s instructions. This labeling strategy was chosen since it should prevent any interference with the actual binding site of the proteins. Labeled protein was diluted to a concentration of 20 nM into MST buffer (50 mM Hepes, pH 7.5, 150 mM NaCl, 10 mM MgCl2, 1 mM DTT, 0.05% polysorbate-20, 0.1% PEG-8000). All compounds were prepared as stocks dissolved in DMSO to a concentration of 50 mM. […] All measurements were performed on a Monolith Pico instrument (NanoTemper Technologies, Muenchen, Germany) with red light. To induce thermophoresis, medium MST power was selected for DNMT2 and high MST power for NSUN6. All experiments were performed in quadruplicates. […] Obtained dilutions were then mixed 1:1 with labeled protein (20 nM) and incubated for 5 min at room temperature prior to measurement. Experiments were performed in duplicates. All data received were analyzed using the MO. Affinity Analysis software version 2.3 (NanoTemper Technologies, Muenchen, Germany).
# [2] = target: T2, DNMT2 (Homo sapiens, UniProt O14717); experiment: Microscale thermophoresis (MST) binding assay, DNMT2; conditions: for MST pre-screening: DNMT2, ligand concentration 33, 100, 300 µM
# T2 construct: made in house; host or cells: E. coli Rosetta2
# T2 sequence (O14717 1-391): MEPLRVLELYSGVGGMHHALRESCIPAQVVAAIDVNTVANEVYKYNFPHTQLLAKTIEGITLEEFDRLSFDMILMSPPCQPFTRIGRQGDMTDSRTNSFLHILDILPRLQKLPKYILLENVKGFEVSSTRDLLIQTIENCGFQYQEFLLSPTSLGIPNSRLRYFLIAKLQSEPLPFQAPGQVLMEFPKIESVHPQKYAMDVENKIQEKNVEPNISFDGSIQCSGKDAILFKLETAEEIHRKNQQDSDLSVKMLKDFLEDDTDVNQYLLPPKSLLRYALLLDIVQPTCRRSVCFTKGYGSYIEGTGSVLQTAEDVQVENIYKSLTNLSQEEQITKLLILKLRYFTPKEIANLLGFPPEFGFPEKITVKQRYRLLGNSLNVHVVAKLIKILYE
# Experimental: as §1
# [3] = NSUN6, ≥ = lower limit, upper plateau not completely reached, read-out: KD,app
Structure (SMILES),"Kd [1, 3]",MST pre-screening ([1]; NSUN6),MST pre-screening [2],also measured
CN1CCN(CC[C@@H](N)C(=O)Nc2ccc(-n3ccc(O)n3)c(F)c2)CC1 (racemic) [Compound 2.1],≥ 369 µM,concentration-dependent MST-shift (binding),–,–
Cn1cnc([C@@H]2CNC[C@H]2C(=O)N2CCC[C@@H](CNC(=O)[C@H]3CCCN3)C2)c1 (racemic) [Compound 2.4],16.4 µM,concentration-dependent MST-shift (binding),–,–
Cc1n[nH]c(C)c1NC(=O)CN1CCN(C(=O)c2ccc(C(N)=O)s2)CC1 [Compound 1.2],–,–,no concentration-dependent MST-shift (no binding),–
CNC(=O)c1cccc(CN[C@H]2CCCN(C(=O)c3coc(C(N)=O)c3)C2)c1 [Compound 1.3],–,–,no concentration-dependent MST-shift (no binding),–
O=C(NCCN/C(O)=C1\N=CC=CC1=O)Nc1cccc2c1CNC2=O [Compound 1.4],12 µM,–,–,–
CNC(=O)c1cccc(CN2CCC[C@H](NC(=O)c3coc(C(N)=O)c3)C2)c1 [Compound 1.5],–,–,no concentration-dependent MST-shift (no binding),–
C[C@@H](NC(=O)Nc1ccc(C(N)=O)c(F)c1)c1cccc(N2CCOC2=O)c1 [Compound 1.9],–,–,no concentration-dependent MST-shift (no binding),–
O=C(NCc1cccc2ncccc12)Nc1ccc(C[C@H]2NC(=O)NC2=O)cc1 [Compound 1.12],–,–,no concentration-dependent MST-shift (no binding),–
Nc1ncnc2cc(C(=O)NCC(=O)Nc3ccc4c(c3)OCCO4)ccc12 [Compound 1.14],≥ 116 µM,–,–,–
Cc1ccc(F)c(-n2cc(O)c(C(=O)NNc3cc(O)nc4ncccc34)n2)c1 [Compound 1.16],–,–,no concentration-dependent MST-shift (no binding),–
N[C@H](CCS(N)(=O)=O)C(=O)Nc1ccc(C2CCNCC2)cc1 [Compound 2.3],–,no concentration-dependent MST-shift (no binding),–,–
CN1CCC[C@@H]1CCC(=O)Nc1c[nH]nc1C(=O)NCC(N)=O [Compound 2.6],–,no concentration-dependent MST-shift (no binding),–,–
COc1ccc(C(=O)Nc2cccc(CN[C@H](CN)CO)c2)cc1 [Compound 2.8],42 µM,concentration-dependent MST-shift (binding),–,MST result DNMT2 ('off-target'/selectivity) ([2]; no MST shift at ligand concentration of up to 300 µM): [drawing 33] No binding; selectivity for NSUN6 over DNMT2 ([2]; selective = no MST shift for the other enzyme up to 300 µM): selectivity
O=C([C@@H]1NC[C@@H](O)[C@H]1O)N1CCN([C@@H]2CCN(c3ccccc3)C2=O)CC1 [Compound 2.11],–,no concentration-dependent MST-shift (no binding),–,–
"Nc1ncnc2c1ncn2[C@@H]1O[C@H](CSCC[C@H](N)C(=O)O)[C@@H](O)[C@H]1O [SAH, S-adenosyl-L-homocysteine, reference compound]",–,–,–,"Kd ([2]; MST dose-response curve, DNMT2, reference ligand): 11.8 µM; Kd ([1]; NSUN6, reference ligand, read-out: KD): 9.1 µM"
